Results taken from patent US12448383B2, “Compounds and methods for treatment of viral infections” (priority 2022, dated 2025).
Where two headings read alike, the source gives them in different places.

Tests used:
[1] = Stability in pH7 buffered solution; assay type: physicochemical; conditions: pH7 phosphate buffer, 40° C., Table N2
Procedure, shortened: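 Compounds diluted from 1 mg/mL acetonitrile stock to 50 μg/mL in 50 mM phosphate buffer with 150 mM NaCl at pH2 or pH7, held at 40° C. for 24 hrs. UPLC sampling at 0, 3, 6, 9, 12 hrs, plus 24 hrs from oven-stored duplicate; reported as % area normalized of compound peak.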

[2] = GI S9 stability - no PMSF; assay type: in vitro ADME; conditions: pH 7.4; human intestinal S9, PMSF-free; read-out: GIS9-HUMAN-NoPMSF T1/2
Procedure, shortened: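 Compounds were incubated at 2 μM with PMSF-free intestinal S9 (1 mg/mL protein) in 100 mM PBS, pH 7.4, sampling at 6 time points over 120 min. Parent disappearance and formation of the nucleoside metabolite Reference Compound A were quantified by LC-MS (Q-Exactive) using analyte/internal standard peak area ratios.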

[3] = tested on: Respiratory syncytial virus recombinant with luciferase (RSV-Luc5) in Normal Human Bronchial Epithelial (NHBE) cells; experiment: microbe, parasite or virus in culture; assay type: cell-based
[4] = tested on: SARS Coronavirus 2 recombinant with NanoLuc (SARS-CoV2-NLuc) in A549-hACE2 cells; experiment: organism not typed; assay type: cell-based
[5] = Thermodynamic solubility in pH7 buffered solution; conditions: 50 mM phosphate buffer pH7, 150 mM NaCl, ambient temperature, 24 hours
Procedure, shortened: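 Solid shaken 24 h at ambient temperature in 50 mM phosphate buffer pH7 with 150 mM NaCl. Supernatant diluted in 30:70 acetonitrile:water and quantified by UPLC-UV.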

Plasma stability = assay type: in vitro ADME; set-up: unit not given here; conditions: 37° C., 2 μM substrate
Procedure, shortened: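 Reaction mixture was sampled at 0.05, 0.5, 1, 2, 3 and 4 hr into quench solution containing internal standard, then centrifuged and diluted with water. Remaining analyte was measured by LC-MS on a Q-Exactive using a formic acid/acetonitrile gradient, with 5 ppm mass tolerance.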

| SMILES | pH 7 Stability 24 h % AN [1] [% AN] | half-life at 2 µM [2] [min] | EC50 ([3]; 72 h, read-out: RSV NHBE EC50) [nM] | EC50 ([4]; 48 h, read-out: SARS-CoV2 EC50) [µM] | Sol pH 7 [5] | STA Human Plasma 37 (Plasma stability) | EC50 ([3]; read-out: EC50 RSVFluc-NHBE 384 V2) [nM] | EC50 ([4]; A549, read-out: EC50 SARS CoV2 NanoLuc A549 384) [µM] |
| --- | --- | --- | --- | --- | --- | --- | --- | --- |
| CC12CCC(C1)C(C)(C)C2OC(=O)OC[C@H]1O[C@@](C#N)(c2ccc3c(N)ncnn23)[C@H](O)[C@@H]1O (mixture of isomers) [Compound 48, ((2R,3S,4R,5R)-5-(4-aminopyrrolo[2,1-f][1,2,4]triazin-7-yl)-5-cyano-3,4-dihydroxytetrahydrofuran-2-yl)methyl (1,3,3-trimethylbicyclo[2.2.1]heptan-2-yl) carbonate] | 99 | 10.1 | 167 | 14.2 | 0.19 | 1584 |  |  |
| CC(C)OC(=O)OC[C@H]1O[C@@](C#N)(c2ccc3c(N)ncnn23)[C@H](O)[C@@H]1O [Compound 4, [(2R,3S,4R,5R)-5-(4-aminopyrrolo[2,1-f][1,2,4]triazin-7-yl)-5-cyano-3,4-dihydroay-tetrahydrofuran-2-yl]methyl isopropyl carbonate] | 97 | 0.903 | 774 | 2.67 | 1.85 | 107.92 |  |  |
| CCOC(=O)OC[C@H]1O[C@@](C#N)(c2ccc3c(N)ncnn23)[C@H](O)[C@@H]1O [Compound 6, ((2R,3S,4R,5R)-5-(4-aminopyrrolo[2,1-f][1,2,4]triazin-7-yl)-5-cyano-3,4-dihydroxytetrahydrofuran-2-yl)methyl ethyl carbonate] | 100 | 4.08 | 1010 | 4.42 | 3.02 | 55.852 |  |  |
| CC(C)(C)OC(=O)OC[C@H]1O[C@@](C#N)(c2ccc3c(N)ncnn23)[C@H](O)[C@@H]1O [Compound 46, ((2R,3S,4R,5R)-5-(4-aminopyrrolo[2,1-f][1,2,4]triazin-7-yl)-5-cyano-3,4-dihydroxytetrahydrofuran-2-yl)methyl tert-butyl carbonate] | 8 | 145 | 1180 | 4.3 | 0.45 | 553.13 |  |  |
| CC1(OC(=O)OC[C@H]2O[C@@](C#N)(c3ccc4c(N)ncnn34)[C@H](O)[C@@H]2O)CCCCC1 [Compound 47, ((2R,3S,4R,5R)-5-(4-aminopyrrolo[2,1-f][1,2,4]triazin-7-yl)-5-cyano-3,4-dihydroxytetrahydrofuran-2-yl)methyl (1-methylcyclohexyl) carbonate] | 3 | 151 | 1480 | 3.36 | 0.1 | 1584 |  |  |
| CC(C)(OC(=O)OC[C@H]1O[C@@](C#N)(c2ccc3c(N)ncnn23)[C@H](O)[C@@H]1O)c1ccncc1 [Compound 49, ((2R,3S,4R,5R)-5-(4-aminopyrrolo[2,1-f][1,2,4]triazin-7-yl)-5-cyano-3,4-dihydroxytetrahydrofuran-2-yl)methyl (2-(pyridin-4-yl)propan-2-yl) carbonate] | 94 | 522 | 17700 | 14.3 | 2.03 | 1584 |  |  |
| CC1(C)[C@@H]2CC[C@@]1(C)[C@@H](OC(=O)OC[C@H]1O[C@@](C#N)(c3ccc4c(N)ncnn34)[C@H](O)[C@@H]1O)C2 [Compound 51, ((2R,3S,4R,5R)-5-(4-aminopyrrolo[2,1-f][1,2,4]triazin-7-yl)-5-cyano-3,4-dihydroxytetrahydrofuran-2-yl)methyl ((1R,2S,4R)-1,7,7-trimethylbicyclo[2.2.1]heptan-2-yl) carbonate] | 97 | 11 | 727 | 7.83 | 0.08 | 1366.8 |  |  |
| CC(C)C(=O)O[C@H]1[C@@H](OC(=O)C(C)C)[C@](C#N)(c2ccc3c(N)ncnn23)O[C@@H]1COC(=O)OC(C)(C)C [Compound 58, (2R,3R,4R,5R)-2-(4-aminopyrrolo[2,1-f][1,2,4]triazin-7-yl)-5-(((tert-butoxycarbonyl)oxy)methyl)-2-cyanotetrahydrofuran-3,4-diyl bis(2-methylpropanoate)] | 7 | 1.19 | 1070 | 2.24 | 0.02 | 1584 |  |  |
| CC(C)OC(=O)OC[C@H]1O[C@@](C#N)(c2ccc3c(N)ncnn23)[C@H](OC(=O)C(C)C)[C@@H]1OC(=O)C(C)C [Compound 59, (2R,3R,4R,5R)-2-(4-aminopyrrolo[2,1-f][1,2,4]triazin-7-yl)-2-cyano-5-(((isopropoxycarbonyl)oxy)methyl)tetrahydrofuran-3,4-diyl bis(2-methylpropanoate)] | 93 | 0.869 | 811 | 4.16 | 0.01 | 84.318 |  |  |
| CC(=O)O[C@H]1[C@@H](OC(C)=O)[C@](C#N)(c2ccc3c(N)ncnn23)O[C@@H]1COC(=O)OC(C)C [Compound 65, (2R,3R,4R,5R)-2-(4-aminopyrrolo[2,1-f][1,2,4]triazin-7-yl)-2-cyano-5-(((isopropoxycarbonyl)oxy)methyl)tetrahydrofuran-3,4-diyl diacetate] | 80 | 0.621 | 185 | 3.64 | 0.045 | 14.9 |  |  |
| COC(=O)OC[C@H]1O[C@@](C#N)(c2ccc3c(N)ncnn23)[C@H](OC(C)=O)[C@@H]1OC(C)=O [Compound 128, (2R,3R,4R,5R)-2-(4-aminopyrrolo[2,1-f][1,2,4]triazin-7-yl)-2-cyano-5-(((methoxycarbonyl)oxy)methyl)tetrahydrofuran-3,4-diyl diacetate] | 78 | 0.59 | 2040 | 7.23 | 1.42 | 9.735 |  |  |
| CCOC(=O)OC[C@H]1O[C@@](C#N)(c2ccc3c(N)ncnn23)[C@H](OC(C)=O)[C@@H]1OC(C)=O [Compound 129, (2R,3R,4R,5R)-2-(4-aminopyrrolo[2,1-f][1,2,4]triazin-7-yl)-2-cyano-5-(((ethoxycarbonyl)oxy)methyl)tetrahydrofuran-3,4-diyl diacetate] | 78 | 0.623 | 673 | 5.83 | 0.72 | 3 |  |  |
| CC(C)OC(=O)Nc1ncnn2c([C@]3(C#N)O[C@H](COC(=O)OC(C)C)[C@@H](O)[C@H]3O)ccc12 [Compound 137, isopropyl (7-((2R,3R,4S,5R)-2-cyano-3,4-dihydroxy-5-(((isopropoxycarbonyl)oxy)methyl)tetrahydrofuran-2-yl)pyrrolo[2, i-f][1,2,4]triazin-4-yl)carbamate] | 97 | 8.05 |  |  | 0.13 | 676.3 | 9520 | > 50 |
